According to US11096985B2, “Antimicrobial peptides, their variants and uses” (priority 2015, dated 2021):
Where a SMILES comes first, the peptide text is derived from it. [ ]: non-standard residue; d: D form.

Legend:
[1] = test system: clinical strains of Proteus mirabilis; experiment: MIC, clinical strains of Proteus mirabilis; assay type: cell-based; set-up: unit: µg/mL; conditions: microdilution, Muller Hinton broth-cation adjusted, 0.02% BSA, 0.2% acetic acid
In short: (§1)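 Clinical isolates at 5.0×10^5 cfu/ml in Mueller-Hinton broth (Potato dextrose broth for yeasts) were exposed to Chain peptides at 0.125–128 μg/ml by broth microdilution, 37 °C for 20–24 h. MIC was the lowest concentration with no visible growth.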

[2] = test system: clinical strains of C. parapsilosis; experiment: MIC, clinical yeast strains, C. parapsilosis; assay type: cell-based, Candida parapsilosis; set-up: unit: μg/ml
In short: as §1

[3] = test system: clinical strains of Pseudomonas aeruginosa; experiment: MIC, clinical strains of P. aeruginosa; assay type: cell-based; set-up: unit: μg/ml; conditions: microdilution, Muller Hinton broth-cation adjusted, 0.02% BSA, 0.2% acetic acid
In short: as §1

[4] = test system: clinical strains of C. quillermondiae; experiment: MIC, clinical yeast strains, C. quillermondiae; assay type: cell-based; conditions: C. quillermondiae clinical yeast strain 1
In short: as §1

[5] = test system: clinical strains of C. glabrata; experiment: MIC, clinical yeast strains, C. glabrata; assay type: cell-based, Candida glabrata; set-up: unit: μg/ml
In short: as §1

[6] = test system: clinical strains of Serratia marcescens; experiment: MIC, clinical strains of Serratia marcescens; assay type: cell-based; set-up: unit: µg/mL; conditions: microdilution, Muller Hinton broth-cation adjusted, 0.02% BSA, 0.2% acetic acid
In short: as §1

[7] = test system: clinical strains of Acinetobacter baumannii; experiment: MIC, clinical strains of Acinetobacter baumannii; assay type: cell-based; conditions: microdilution, Muller Hinton broth-cation adjusted, 0.02% BSA, 0.2% acetic acid
Method: Minimum inhibition concentrations (MICs) were determined against Escherichia coli (ATCC 25922), Staphylococcus aureus (ATCC 25923), Klebsiella pneumoniae (ATCC 10031) and Pseudomonas aeruginosa (ATCC 27853). Also clinical strains of E. coli, K. pneumoniae, E. cloacae, P. aeruginosa, Serratia marcescens, Proteus mirabilis, S. pneumoniae, Acinetobacter baumannii, A. johnsonii and S. aureus were used for MICs assays. Additionally, clinical strains of yeast including Candida albicans, C. glabrata, C. parapsilosis and C. quillermondiae were used. The susceptibility of these microorganisms to Chain peptides were determined using micro broth dilution assay. Colonies of the respective microorganism from Muller Hinton (MH) agar plates incubated overnight were suspended in MH broth media and final concentration of microorganism was adjusted to 5.0×10^5 cfu/ml. An aliquot of 10 μl of each Chain peptide, or gentamicin, tetracycline as reference antibiotics were added in differing concentrations along with 90 μl of bacterial suspension to 96 well polypropylene plates and incubated at 37° C. for 20 to 24 hours. Concentrations of Chain peptides and reference antibiotics ranged from 0.125 to 128 μg/ml and the MICs were recorded as the lowest concentration with no visual growth of bacteria. Similarly, antifungal MICs were tested in Potato dextrose broth.
Clinical strains of yeasts including Candida albicans, C. glabrata, C. parapsilosis and C. quillermondiae were also tested with the 12 Chain peptides. The minimum inhibitory concentration (MICs) varied between these peptides and are presented in Tables 4a, 4b, 4c and 5a, 5b, 5c. Peptides Chain 105, 201 and 308 are broad spectrum antimicrobials with MICs between 0.5-32 μg/ml against all the bacteria and yeasts tested, except Serratia marcescens and Proteus mirabilis, against which the MICs were between 64-128 μg/ml. Peptide Chain 306 has narrow spectrum activity against E.coli at 1 μg/ml and for the rest of the bacterial strains at >32 μg/ml (FIG. 10).

[8] = test system: clinical strains of Candida albicans; experiment: MIC, clinical yeast strains, Candida albicans; assay type: cell-based; set-up: unit: μg/ml
In short: as §1

[9] = test system: clinical strains of Streptococcus pneumoniae; experiment: MIC, clinical strains of Streptococcus pneumoniae; assay type: cell-based; set-up: unit: µg/mL; conditions: microdilution, Muller Hinton broth-cation adjusted, 0.02% BSA, 0.2% acetic acid
In short: as §1

[10] = test system: clinical strains of Escherichia coli; experiment: MIC, clinical strains of E. coli; assay type: cell-based; set-up: unit: μg/ml; conditions: microdilution, Muller Hinton broth-cation adjusted, 0.02% BSA, 0.2% acetic acid
In short: as §1

[11] = test system: clinical strains of Enterobacter cloacae; experiment: MIC, clinical strains of Enterobacter cloacae; assay type: cell-based; set-up: unit: μg/ml; conditions: microdilution, Muller Hinton broth-cation adjusted, 0.02% BSA, 0.2% acetic acid
In short: as §1

[12] = test system: clinical strains of Klebsiella pneumoniae; experiment: MIC, clinical strains of K. pneumoniae; assay type: cell-based; set-up: unit: μg/ml; conditions: microdilution, Muller Hinton broth-cation adjusted, 0.02% BSA, 0.2% acetic acid
In short: as §1

[13] = test system: clinical strains of Staphylococcus aureus; experiment: MIC, clinical strains of S. aureus; assay type: cell-based; set-up: unit: μg/ml; conditions: microdilution, Muller Hinton broth-cation adjusted, 0.02% BSA, 0.2% acetic acid
In short: as §1

## CC[C@@H](C)[C@@H](NC(=O)[C@@H](CC(C)C)NC(=O)[C@@H](CCCNC(=N)N)NC(=O)[C@H](N)CCCNC(=N)N)C(=O)N[C@H](Cc1c[nH]c2ccccc12)C(=O)N[C@H](CCCNC(=N)N)C(=O)N[C@H](CCCNC(=N)N)C(=O)N[C@H](Cc1ccccc1)C(=O)N[C@H](CCCCN)C(=O)N[C@H](Cc1c[nH]c2ccccc12)C(=O)N[C@H](CC(C)C)C(=O)N[C@H](CCCNC(=N)N)C(=O)O [Chain204D] (H-[dR][dR][dL][dI][dW][dR][dR][dF][dK][dW][dL][dR]-OH)
[1]; Proteus mirabilis clinical strain 1
  Minimum inhibitory concentration: >128
[1]; Proteus mirabilis clinical strain 2
  Minimum inhibitory concentration: 32
[1]; Proteus mirabilis clinical strain 3
  Minimum inhibitory concentration: 64
[1]; Proteus mirabilis clinical strain 4
  Minimum inhibitory concentration: >128
[1]; Proteus mirabilis clinical strain 5
  Minimum inhibitory concentration: >128
[2]; C. parapsilosis clinical yeast strain 1
  Minimum inhibitory concentration: 4
[2]; C. parapsilosis clinical yeast strain 2
  Minimum inhibitory concentration: 4
[2]; C. parapsilosis clinical yeast strain 3
  Minimum inhibitory concentration: 8
[2]; C. parapsilosis clinical yeast strain 4
  Minimum inhibitory concentration: 8
[3]; Pseudomonas aeruginosa clinical strain 1
  Minimum inhibitory concentration: 4
[3]; Pseudomonas aeruginosa clinical strain 2
  Minimum inhibitory concentration: 16
[3]; Pseudomonas aeruginosa clinical strain 3
  Minimum inhibitory concentration: 8
[3]; Pseudomonas aeruginosa clinical strain 4
  Minimum inhibitory concentration: 8
[3]; Pseudomonas aeruginosa clinical strain 5
  Minimum inhibitory concentration: 4
[4]
  Minimum inhibitory concentration: 4
[5]; C. glabrata clinical yeast strain 1
  Minimum inhibitory concentration: 4
[5]; C. glabrata clinical yeast strain 2
  Minimum inhibitory concentration: 8
[5]; C. glabrata clinical yeast strain 3
  Minimum inhibitory concentration: 32
[5]; C. glabrata clinical yeast strain 4
  Minimum inhibitory concentration: 32
[6]; Serratia marcescens clinical strain 1
  Minimum inhibitory concentration: >128
[6]; Serratia marcescens clinical strain 2
  Minimum inhibitory concentration: >128
[6]; Serratia marcescens clinical strain 3
  Minimum inhibitory concentration: 128
[6]; Serratia marcescens clinical strain 4
  Minimum inhibitory concentration: >128
[6]; Serratia marcescens clinical strain 5
  Minimum inhibitory concentration: >128
[7]; Acinetobacter baumannii clinical strain 1
  Minimum inhibitory concentration: 4
[7]; Acinetobacter baumannii clinical strain 2
  Minimum inhibitory concentration: 4
[7]; Acinetobacter baumannii clinical strain 3
  Minimum inhibitory concentration: 4
[7]; Acinetobacter baumannii clinical strain 4
  Minimum inhibitory concentration: 4
[7]; Acinetobacter baumannii clinical strain 5
  Minimum inhibitory concentration: 4
[8]; Candida albicans clinical yeast strain 1
  Minimum inhibitory concentration: 8
[8]; Candida albicans clinical yeast strain 2
  Minimum inhibitory concentration: 8
[8]; Candida albicans clinical yeast strain 3
  Minimum inhibitory concentration: 8
[8]; Candida albicans clinical yeast strain 4
  Minimum inhibitory concentration: 8
[8]; Candida albicans clinical yeast strain 5
  Minimum inhibitory concentration: 8
[9]; Streptococcus pneumoniae clinical strain 1
  Minimum inhibitory concentration: 4
[9]; Streptococcus pneumoniae clinical strain 2
  Minimum inhibitory concentration: 4
[9]; Streptococcus pneumoniae clinical strain 3
  Minimum inhibitory concentration: 4
[9]; Streptococcus pneumoniae clinical strain 4
  Minimum inhibitory concentration: 4
[9]; Streptococcus pneumoniae clinical strain 5
  Minimum inhibitory concentration: 4
[10]; Escherichia coli clinical strain 1
  Minimum inhibitory concentration: 8
[10]; Escherichia coli clinical strain 2
  Minimum inhibitory concentration: 1
[10]; Escherichia coli clinical strain 3
  Minimum inhibitory concentration: 1
[10]; Escherichia coli clinical strain 4
  Minimum inhibitory concentration: 1
[10]; Escherichia coli clinical strain 5
  Minimum inhibitory concentration: 1
[11]; Enterobacter cloacae clinical strain 1
  Minimum inhibitory concentration: 4
[11]; Enterobacter cloacae clinical strain 2
  Minimum inhibitory concentration: 8
[11]; Enterobacter cloacae clinical strain 3
  Minimum inhibitory concentration: 4
[11]; Enterobacter cloacae clinical strain 4
  Minimum inhibitory concentration: 8
[11]; Enterobacter cloacae clinical strain 5
  Minimum inhibitory concentration: 2
[12]; Klebsiella pneumoniae clinical strain 1
  Minimum inhibitory concentration: 8
[12]; Klebsiella pneumoniae clinical strain 2
  Minimum inhibitory concentration: 4
[12]; Klebsiella pneumoniae clinical strain 3
  Minimum inhibitory concentration: 16
[12]; Klebsiella pneumoniae clinical strain 4
  Minimum inhibitory concentration: 4
[12]; Klebsiella pneumoniae clinical strain 5
  Minimum inhibitory concentration: 2
[13]; Staphylococcus aureus clinical strain 1
  Minimum inhibitory concentration: 1
[13]; Staphylococcus aureus clinical strain 2
  Minimum inhibitory concentration: 2
[13]; Staphylococcus aureus clinical strain 3
  Minimum inhibitory concentration: 2
[13]; Staphylococcus aureus clinical strain 4
  Minimum inhibitory concentration: 1
[13]; Staphylococcus aureus clinical strain 5
  Minimum inhibitory concentration: 1
